Consider two compounds from patent publication US12410211B2, “V1A receptor partial agonist and method of use” (PharmaIN Corporation, priority 2020, dated 2025).

Where a SMILES comes first, the peptide text is derived from it. Bridges are numbered along the chain shown (N, C = ends).

Data set [1] in a line: Therapeutic index (NOAEL/NOEL): paleness, lethargy, ataxia observation in Sprague-Dawley rats (Example 7). It counts as in vivo. The procedure, abridged: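 Male Sprague-Dawley rats, 8–10 weeks, under isoflurane (n=3 or 6), dosed IV or SC with test articles. Paleness judged by ear colour beside untreated controls; lethargy and ataxia scored by observation. Index expressed as NOAEL/NOEL ratio.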

For a further data set, the target named is V2 (Homo sapiens, UniProt P30518). Particulars: cited from earlier work.
Chain of V2 (P30518 whole entry): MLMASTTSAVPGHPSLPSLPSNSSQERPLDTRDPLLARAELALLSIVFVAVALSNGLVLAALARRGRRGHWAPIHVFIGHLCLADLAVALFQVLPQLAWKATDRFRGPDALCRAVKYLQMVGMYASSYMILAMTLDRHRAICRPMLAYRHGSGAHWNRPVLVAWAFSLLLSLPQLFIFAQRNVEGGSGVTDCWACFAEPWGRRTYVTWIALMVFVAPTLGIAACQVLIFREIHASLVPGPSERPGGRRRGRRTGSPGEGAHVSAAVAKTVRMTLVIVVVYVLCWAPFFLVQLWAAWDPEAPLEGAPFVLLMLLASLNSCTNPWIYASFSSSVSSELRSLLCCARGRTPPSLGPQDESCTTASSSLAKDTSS
Data set [2] in a line: Acute diuretic activity of Terlipressin, Tolvaptan and combinations in Wistar rats (Example 5). It is filed as in vivo. How it is done: The animals were then treated with Terlipressin (Bachem, Torrance CA), Tolvaptan (Fisher Scientific, Waltham, MA) and combination of the two compounds at various concentrations administered subcutaneously (n=4). Test articles were Terlipressin 0.05 mg/Kg and 0.15 mg/Kg, Tolvaptan 0.3 mg/Kg, and 1.0 mg/Kg, Terlipressin 0.05 mg/Kg+Tolvaptan 0.3 mg/Kg, Terlipressin 0.05 mg/Kg+Tolvaptan 1.0 mg/Kg, Terlipressin 0.15 mg/Kg+Tolvaptan 0.3 mg/Kg, and Terlipressin 0.15 mg/Kg+1.0 mg/Kg. Furosemide (Fisher Scientific, Waltham, MA) was used as positive control and dosed at 20 mg/kg via oral gavage. Control dosed vehicle group (9% tween 80; Fisher Scientific, Waltham MA) administered subcutaneously was included and the resulting data was subtracted from individual test article data. After the dose, animals were placed in the metabolic cage (Tecniplast; Province of Varese, Italy) and urine was collected and measured at 2, 4 and 8 hours after the dosing of test articles. Urine volumes were divided by the body weight (pre-dose) times 100 to express in ml/100 g body weight.

The nature of data set [3]: Telemetric evaluation of portal vein pressure in rats with bile duct ligation (Example 9). It is filed as in vivo, Sprague Dawley rats. Particulars: BDL rats n = 4, 41 μg/kg intravenous bolus. How it is done:
For this study, animals (Sprague Dawley rats (240-300 g at surgery from Charles River Laboratory) were maintained at room temperatures (20 to 22° C.) with 14-hour light, 10-hour dark cycle when not performing study procedures. The mean portal vein pressure (MPVP) reduction efficacy of a peptide of Formula ([…] [SEQ ID NO. 13]; Mpa and C are disulfide bonded; represented as TA-1) was compared to terlipressin in telemetered male with Bile Duct Ligation (BDL) and Sham surgery. On Study Day 1, rats received bile duct ligation surgery and telemetry implantation. The BDL group (n=4) had two stands of silk suture tightened and tied to occlude the bile duct; the sham group (n=3) had sutures loosely tied around the bile duct so that no occlusion occurred. After recovery from surgery, all rats had their portal vein pressure monitored continuously via telemetry until Day 22. […] Terlipressin was administered through intravenous bolus into a lateral tail vein on Day 20 and 21. All animals were dosed under manual restraint. Systolic portal vein pressure and diastolic portal vein pressure were measured to calculate the Mean Portal Vein Pressure ([…] was analyzed by averaging 5 minute intervals for the first 4 hours after dose and thereafter averaging 1 hour intervals after dose until 24 hours. […] Telemetric evaluation of […] [SEQ ID NO. 13] and Terlipressin on portal vein pressure in rats with bile duct ligation. The animal room temperatures were set to maintain 20 to 22° C. A 14-hour light, 10-hour dark cycle was implemented unless interrupted by study procedures. Efficacy was assessed by evaluating mean portal vein pressure (MPVP) at different concentrations of Formula 1 and Terlipressin in telemetered male Sprague Dawley rats (240-300 g at surgery from Charles River Laboratory) with Bile Duct Ligation (BDL) and Sham surgery. On Study Day 1, rats received bile duct ligation surgery and telemetry implantation. The BDL group (n=4) had two stands of silk suture tightened and tied to occlude the bile duct; the sham group (n=3) had sutures loosely tied around the bile duct so that no occlusion occurred. After recovery from surgery, all rats had their portal vein pressure monitored continuously via telemetry until Day 22. […] Formula 1 was administered at different concentrations subcutaneously on Day 15 to 19, and Day 23; Terlipressin was administered through intravenous bolus into a lateral tail vein on Day 20 and 21. All animals were dosed under manual restraint. Systolic portal vein pressure and diastolic portal vein pressure were measured to calculate the Mean Portal Vein Pressure ([…] was analyzed by averaging 5 minute intervals for the first 4 hours after dose and thereafter averaging 1 hour intervals after dose until 24 hours.

Data set [4] is described as follows: Acute diuretic activity of Tolvaptan and peptides of Formula (II) and (IV) in Wistar rats (Example 6). It is filed as in vivo. Particulars: Tolvaptan 0.3 mg/kg subcutaneous. How it is done:
In this study, Male Wistar Rats (˜8 weeks; Envigo; Somerset, NJ) were fasted overnight (18 hours; free access to water) followed by treatment with saline at 20 ml/Kg via oral gavage to have a uniform hydration of all the animals. The animals were then treated with various concentrations of test articles administered subcutaneously (n=4) (Table 5). Control dosed vehicle group (9% tween 80; Fisher Scientific, Waltham MA) administered subcutaneously was included and the resulting data was subtracted from individual test article data. After the dose, animals were placed in the metabolic cage (Tecniplast; Province of Varese, Italy) and urine was collected and measured at 2, 4 and 8 hours after the dosing of test articles. Urine volumes were divided by the body weight (pre-dose) times 100 to express in ml/100 g body weight. […] However, at any ratio, a tolvaptan dose of about 0.3 mg/Kg (i.e., 0.3+0.05 mg/Kg) administered in rats (allometrically equivalent to about 2-7 mg/human depending on persons weight) is an ideal dose that when combined with the composition of the present disclosure provides greater than 50% of the sum of individual diuretic effect administered alone. Low dose of 0.3 mg/Kg of subcutaneous tolvaptan is considered to be 13-fold below the effective safe human dose thus providing additional advantage to patients with liver disease. This can increase mean arterial blood pressure (MAP) which is a V1a effect caused by composition of the present disclosure while maintaining significant (at least 50% of the sum of individual diuretic effect administered alone) of both.

By NOAEL is commonly meant the highest dose or exposure tested at which no adverse effect was seen.

In the case of `NCCCC[C@H](NC(=O)[C@@H]1CCCN1C(=O)[C@@H]1CSSC[C@H](NC(=O)CNC(=O)CNC(=O)CN)C(=O)N[C@@H](Cc2ccc(O)cc2)C(=O)N[C@@H](Cc2ccccc2)C(=O)N[C@@H](CCC(N)=O)C(=O)N[C@@H](CC(N)=O)C(=O)N1)C(=O)NCC(N)=O` [Terlipressin, reference compound] (H-GGGCYFQNCPKG-NH2; disulfide 4-9), the “Paleness (Duration, hrs; SD)” value in data set [1] (I.V., at the Marked adverse effect dose) was “(3.56 ± 0.06) hrs”; in data set [1] (I.V., at the Mild adverse effect dose) it was “(2.82 ± 0.03) hrs”; in data set [1] (I.V., at the NOAEL dose) it was “(1.3 ± 0.05) hrs”; in data set [1] (I.V., at the NOEL dose), “None observed”. For the same compound, in data set [1] (I.V., rat), the “Highest dose with no-observed effect level or paleness (NOEL)” value was 0.005 mg/kg. Moreover, in data set [1] (male, Sprague-Dawley, in vivo, iv, I.V., rat, read-out: Highest dose with no-observed adverse effect level without lethargy (NOAEL)), the NOAEL at 24 h worked out at 0.05 mg/kg. Besides, in data set [1] (rat, in vivo, iv), the “Marked adverse effect (Lowest dose first showed Ataxia)” value was determined as 1.5 mg/kg. Besides, the “Mild adverse effect (Lowest dose first showed Lethargy)” value in data set [1] (rat, in vivo, iv) is 0.15 mg/kg. In addition, the “V2 or anti-diuretic activity” value at V2 is given as 3%. The “Average mL of Urine per 100 gram body weight 8 hours cumulative (n = 4) minus Vehicle group (Tween 80); (SEM)” value is given as 0.70 (0.17) mL per 100 gram body weight in data set [2] (Terlipressin 0.05 mg/Kg subcutaneous) and 1.32 (0.23) mL per 100 gram body weight in data set [2] (Terlipressin 0.15 mg/Kg subcutaneous). For the same compound, the “Percent decrease (%) in Mean Portal Vein Pressure (MPVP) from BDL baseline prior to treatment” value in data set [3] (Time 1 hr) is on record as −23%; in data set [3] (Time 4 hr), 11.3%; in data set [3] (Time 7 hr), 10.8%; in data set [3] (Time 20 hr), 7.3%.

As to `Cc1ccccc1C(=O)Nc1ccc(C(=O)N2CCCC(O)c3cc(Cl)ccc32)c(C)c1` (stereo not drawn) [Tolvaptan], the “Average 8 hours cumulative Urine Volume: mL per 100 gram body weight (SEM; n = 4) minus Tween 80 vehicle group” value in data set [4] is 0.65 (0.16) mL per 100 gram body weight. The “Average mL of Urine per 100 gram body weight 8 hours cumulative (n = 4) minus Vehicle group (Tween 80); (SEM)” value was 0.65 (0.16) mL per 100 gram body weight in data set [2] (Tolvaptan 0.3 mg/Kg subcutaneous) and 7.29 (0.46) mL per 100 gram body weight in data set [2] (Tolvaptan 1.0 mg/Kg subcutaneous).
